From ChEMBL document CHEMBL1201862, “PubChem BioAssay data set” (2004)
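Grown in 96-well plates, cells were treated for 48 hours with each compound at five concentrations. Insufficient inhibition: endpoint recorded as highest concentration tested. GI50 = concentration required for 50% inhibition of growth.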 Calls of active or inactive are those of the source. Rule as the data show it: active = GI50 up to about 1.1 µM and inactive = higher. Residues, ends and D or L forms follow the SMILES beside them. *: point of attachment. Boc = CC(C)(C)OC(=O)*

What was measured:
Experiment in all cases: inhibition of tumour cell growth, NCI panel, 48 h
A549 = system: A549
BT-549 = system: BT-549
CAKI-1 = system: CAKI-1
HCT-116 = system: HCT-116
HL-60 = system: HL-60
HT-29 = system: HT-29
Hs-578T = system: Hs-578T
IGROV-1 = system: IGROV-1
KM12 = system: KM12
MOLT-4 = system: MOLT-4
Malme-3M = system: Malme-3M
NCI-H460 = system: NCI-H460
NCI-H522 = system: NCI-H522
OVCAR-3 = system: OVCAR-3
OVCAR-4 = system: OVCAR-4
SK-MEL-5 = system: SK-MEL-5
UO-31 = system: UO-31
SK-MEL-2 = system: SK-MEL-2
HCC 2998 = system: HCC 2998

Measured: GI50

Cc1ccc(C2=C(Cl)C(=O)C(c3ccc(C)cc3)=C(Cl)C2=O)cc1
inactive: A549 > 100 µM | BT-549 > 100 µM | CAKI-1 > 100 µM | HCT-116 > 100 µM | HL-60 > 100 µM | HT-29 > 100 µM | Hs-578T > 100 µM | IGROV-1 > 100 µM | KM12 > 100 µM | MOLT-4 > 100 µM | Malme-3M > 100 µM | NCI-H460 > 100 µM | NCI-H522 > 100 µM | OVCAR-3 > 100 µM | OVCAR-4 > 100 µM | SK-MEL-5 > 100 µM | UO-31 > 100 µM

CCOC(=O)CCC1(C(=O)O[C@@H]2C[C@H](C)CC[C@H]2C(C)C)CCCCC1=O (some centres undefined)
inactive: A549 55.3 µM | BT-549 > 100 µM | CAKI-1 40.7 µM | HCT-116 41.7 µM | HL-60 18.2 µM | HT-29 43.3 µM | Hs-578T > 100 µM | IGROV-1 > 100 µM | KM12 50.4 µM | MOLT-4 29.2 µM | Malme-3M > 100 µM | NCI-H460 36.6 µM | NCI-H522 67.6 µM | OVCAR-3 45.8 µM | OVCAR-4 61.2 µM | SK-MEL-2 > 100 µM | SK-MEL-5 31.1 µM | UO-31 > 100 µM

N#CCCN(CCN(CCN(C(=O)Nc1ccccc1)c1ccccc1)C(=O)Nc1ccccc1)C(=O)Nc1ccccc1
inactive: A549 > 100 µM | BT-549 > 100 µM | CAKI-1 > 100 µM | HCC 2998 28.2 µM | HCT-116 > 100 µM | Hs-578T 26 µM | IGROV-1 43.9 µM | KM12 2.57 µM | MOLT-4 4.43 µM | OVCAR-3 > 100 µM | OVCAR-4 > 100 µM | SK-MEL-2 > 100 µM | SK-MEL-5 > 100 µM | UO-31 > 100 µM

Cc1nnc([C@@]2(C)CC[C@H]3[C@@H](CCC4=CC(=O)CC[C@@]43C)[C@@H]2CC#N)o1
inactive: A549 > 100 µM | BT-549 > 100 µM | CAKI-1 > 100 µM | HCT-116 > 100 µM | HL-60 > 100 µM | HT-29 > 100 µM | Hs-578T > 100 µM | IGROV-1 > 100 µM | KM12 > 100 µM | MOLT-4 > 100 µM | Malme-3M > 100 µM | NCI-H522 > 100 µM | OVCAR-3 > 100 µM | OVCAR-4 > 100 µM | SK-MEL-2 > 100 µM | SK-MEL-5 > 100 µM | UO-31 > 100 µM

COC(=O)[C@]1(C)CC[C@]2(C)CC[C@]3(C)C4[C@H]5Oc6c(cc7c(c6C)CCC6[C@@]7(C)CC[C@@]7(C)C8[C@](C)(CCC[C@@]8(C)C(=O)OC)CC[C@]67C)O[C@H]5c5c(cc6c(c5C)O[C@@]5(C)C7=CC=C8[C@@](C)(CC[C@@]9(C)[C@@H]%10C[C@](C)(C(=O)OC)CC[C@]%10(C)CC[C@]89C)C7=CC(=O)[C@@]5(O)O6)[C@]4(C)CC[C@@]3(C)C2C1 (some centres undefined)
inactive: A549 > 12.5 µM | BT-549 7.03 µM | CAKI-1 6.22 µM | HCT-116 2.34 µM | HL-60 5.32 µM | HT-29 3.66 µM | Hs-578T 5.78 µM | IGROV-1 2.62 µM | KM12 > 12.5 µM | MOLT-4 1.39 µM | Malme-3M 4.86 µM | NCI-H460 8.91 µM | NCI-H522 2.49 µM | OVCAR-3 2.64 µM | OVCAR-4 7.59 µM | SK-MEL-2 3.01 µM | SK-MEL-5 3.69 µM | UO-31 2.52 µM

CC(C)(C)OC(=O)N1CCc2[nH][nH]c(=O)c2C1
inactive: A549 > 100 µM | BT-549 > 100 µM | CAKI-1 > 100 µM | HCT-116 > 100 µM | HL-60 > 100 µM | HT-29 > 100 µM | Hs-578T > 100 µM | IGROV-1 > 100 µM | KM12 > 100 µM | MOLT-4 > 100 µM | Malme-3M > 100 µM | NCI-H460 > 100 µM | NCI-H522 > 100 µM | OVCAR-3 > 100 µM | OVCAR-4 > 100 µM | UO-31 > 100 µM

COC(=O)C(Cc1ccc2c(c1)CCC2)Cc1ccc2c(c1)CCC2
inactive: A549 41.3 µM | BT-549 27.1 µM | HCT-116 66.2 µM | HL-60 23 µM | HT-29 29.4 µM | Hs-578T > 100 µM | IGROV-1 > 100 µM | KM12 37.3 µM | MOLT-4 40.3 µM | NCI-H460 53.2 µM | NCI-H522 32.9 µM | OVCAR-3 85.1 µM | OVCAR-4 > 100 µM | SK-MEL-2 18.4 µM | SK-MEL-5 25.9 µM | UO-31 53.3 µM

COc1ccc(OC)c2sc(N3C(=O)/C(=C/c4ccc(SC)cc4)N=C3c3ccccc3)nc12
inactive: A549 22.2 µM | BT-549 29.4 µM | CAKI-1 96.2 µM | HCC 2998 71.4 µM | HCT-116 18.7 µM | HL-60 25.5 µM | HT-29 23.1 µM | Hs-578T 17.7 µM | IGROV-1 23.3 µM | KM12 20 µM | MOLT-4 22.3 µM | NCI-H460 28.6 µM | OVCAR-3 20.4 µM | OVCAR-4 28.5 µM | SK-MEL-2 20.8 µM | SK-MEL-5 15.6 µM | UO-31 24.2 µM

CC1(C)N=C(N)N=C(N)N1c1cccc(OCCOc2ccc([N+](=O)[O-])cc2)c1
inactive: A549 4.48 µM | BT-549 12.9 µM | CAKI-1 > 100 µM | HCT-116 4.81 µM | HL-60 66.8 µM | HT-29 8.24 µM | Hs-578T > 100 µM | IGROV-1 1.96 µM | KM12 11.5 µM | MOLT-4 > 100 µM | Malme-3M 20.6 µM | NCI-H460 7.53 µM | NCI-H522 3.79 µM | OVCAR-3 41.6 µM | OVCAR-4 63.5 µM | SK-MEL-2 8.26 µM | SK-MEL-5 69.5 µM

C=C(C)C1CCC2(C)C1CCC1(C)C2CCC2C3(C)C4OC(OC4=O)C(C)(C)C3CCC21C (centres undefined)
inactive: A549 > 100 µM | BT-549 > 100 µM | CAKI-1 92 µM | HCC 2998 > 100 µM | HCT-116 > 100 µM | HL-60 47.3 µM | HT-29 > 100 µM | Hs-578T > 100 µM | IGROV-1 > 100 µM | KM12 > 100 µM | MOLT-4 > 100 µM | NCI-H460 > 100 µM | NCI-H522 14.6 µM | OVCAR-3 > 100 µM | SK-MEL-2 > 100 µM | SK-MEL-5 > 100 µM | UO-31 > 100 µM

CC(C)(C)OC(=O)NC(Cc1ccc(O)cc1)C(=O)NC(CCCCN)C(=O)O (stereo not drawn) (Boc-Tyr-Lys-OH; configuration not given here)
inactive: A549 40.4 µM | BT-549 20 µM | CAKI-1 > 10 µM | HCC 2998 28.9 µM | HCT-116 16.9 µM | HL-60 23.7 µM | HT-29 47.4 µM | IGROV-1 17.3 µM | MOLT-4 32.8 µM | Malme-3M 28.1 µM | NCI-H460 25.2 µM | NCI-H522 6.41 µM | OVCAR-3 28.4 µM | OVCAR-4 17.5 µM | SK-MEL-2 20.2 µM | SK-MEL-5 28.1 µM | UO-31 19.7 µM
